Test results: patent publication US20080299123A1, “TREATMENT OF CHEMOTHERAPY- OR RADIOTHERAPY-RESISTANT TUMORS” (Deutsches Krebsforschungszentrum Stiftung des offentlichen …, priority 2006, published 2008)

Legend:
ERK phosphorylation = ERK phosphorylation in SKOV3ip cells; type: cell-based, human; conditions: treatment with DAPT, TAPI-0
Description: (A) Analysis of L1-32 cleavage by γ-secretase. Cells were treated for 48 h at 37° C. with presenilin inhibitor IX (DAPT) or for control with DMSO. Isolated membranes were incubated for 2 h at 37° C. and then separated into pellet or supernatant (SN) fractions by ultracentrifugation. Lanes 1 to 2 show cells treated with DMSO (vehicle). Lanes 3 and 4 show cells preincubated with DAPT. (B) SKOV3ip cells were treated with DAPT either in the presence or absence of the metalloprotease inhibitor TAPI-0 for 24 hr. Cells were lysed in BOG lysis buffer and analyzed by Western blot analysis. The cell supernatant was analyzed for soluble L1 using mAb L1-11A and the cell lysate was examined for L1-32 using peytL1. (C) HEK293 or HEK293-hL1wt cells were treated with DMSO, DAPT, TAPI-0 or both inhibitors for 96 h. mRNA was transcribed to cDNA and analyzed by qPCR for the genes CRABPII and cathepsin B. (D) Analysis of ERK phosphorylation in SKOV3ip cells after treatment with the indicated compounds.
(A) Effect of L1-antibodies on ERK phosphorylation in SKOV3ip cells. The cells were incubated for 24 hr at 37° C. with the indicated purified antibodies to L1 (10 μg/ml) or isotype control IgG. […] Soluble L1 in the supernant and L1-32 in the cell lysate were analyzed by Western blot. (C) mRNA was isolated from antibody treated SKOV3ip cells, transcribed to cDNA and analyzed by qPCR for the indicated genes. […]

L1CAM = L1CAM cleavage by western blotting in L1CAM transfected PT45-P1 cells; type: cell-based, human; conditions: inhibitor 10 μmol/L, 24 hours
Description: PT45-P1res cells (a,b) or PT45-P1 cells transfected with L1CAM or an empty control vector (mock) (c,d) were left untreated (w/o) or were either treated with Tapi-0, Tapi-1, GM6001 or L685,458 (each 10 μmol/L) for 24 hours. (a,c) Cellular lysates were subjected to western blotting using either the antibody clone UJ127 from Acris detecting only full-length L1CAM or the pcytL1 antibody detecting also the cytoplasmic part of L1CAM. HSP90 was detected as a control for equal protein load. (b,d) Thirty minutes after treatment with the respective inhibitor, cells were either left untreated or treated with 20 μg/mL etoposide for 24 hours. Then, cells were analysed for caspase-3/-7 activity expressed as n-fold induction of caspase-3/-7 activity of basal. Means±SD from three independent experiments are shown. * indicates p<0.05.
Cells were seeded into 6 well and 12 well plates, respectively, and transfected or treated as indicated. Then, cells were washed once with PBS and lysed with 1 volume of 2×SDS sample buffer (128 mmol/L Tris-Base, 4.6% SDS, 10% glycerol). Samples were heated for 5 minutes at 95° C. and put on ice for 2 minutes. Protein concentrations were determined using the Dc Protein assay (BioRad). Ten μg of protein adjusted to an appropriate volume of SDS sample buffer containing 0.2 mg/mL bromphenolblue (Serva, Heidelberg, Germany) and 2.5% β-mercaptoethanol (Biomol, Hamburg, Germany) were submitted to electrophoresis on a 4-20% ProGel-Tris-glycin-gel (Anamed, Darmstadt, Germany) and immunoblotting was performed as described previously (Arlt et al, 2001). For detection of L1CAM, a monoclonal antibody (clone UJ127 from Acris Antibodies) was diluted at a concentration of 0.4 μg/mL in 5% nonfat milk powder and 0.05% Tween in TBS (blotto) and incubated overnight at 4° C. For detection of the cytoplasmic domain of L1CAM, the pcytL1 antibody (Mechtersheimer et al., 2001) was used at a concentration of 1 μg/mL in blotto and incubated overnight at 4° C. As control of equal protein load, a polyclonal rabbit antibody for HSP90 (Santa Cruz, Heidelberg, Germany) was diluted 1:2000 in blotto. The mouse anti CD51 antibody from Beckman Coulter GmbH (Krefeld, Germany) was used at a concentration of 1:500 in blotto for detection of human αv integrin. Incubation with the primary antibodies was performed overnight at 4° C. For detection of the primary antibodies, anti-mouse and anti-rabbit HRP-linked antibodies (Cell Signaling), respectively, were used at a dilution of 1:2000 in blotto-TBST at room temperature for 1 hour. After washing in TBST, blots were developed using the LumiGlo peroxidase detection kit (Cell Signaling).

For `CC(C)C[C@H](CC(=O)NO)C(=O)N[C@@H](Cc1ccc2ccccc2c1)C(=O)N[C@@H](C)C(N)=O` [TAPI-0], the “ERK activation in treated cells” value (ERK phosphorylation) was “did not interfere with ERK activation” and the “expression of full-length L1CAM and level of the 32 kD fragment” value (L1CAM) was “did neither influence the expression of full-length L1CAM nor increased the level of the 32 kD fragment”.
